For orientation: half-life means how long it takes for the measured level to halve. The term bioavailability denotes dose-corrected exposure relative to a reference, in per cent. A low value points to little systemic uptake. As usually defined, the Kp is tissue or fluid exposure divided by exposure in the circulation.

Here are results for 7 compounds from ChEMBL document CHEMBL1153978, “8-[2-(4-Aryl-1-piperazinyl)ethyl]-2H-1,4-benzoxazin-3(4H)-ones: dual-acting 5-HT1 receptor antagonists and serotonin reuptake inhibitors--part II” (Bioorg Med Chem Lett, 2009).

The subject of data set [1] is Liver microsomes. The data set can be described thus: Intrinsic clearance in human liver microsomes. The format is ADME, Microsome. A general note: Microsomes from liver hold many membrane-bound enzymes, among them those of drug oxidation.
Data set [2] can be described thus: Volume of distribution at steady state in rat at 0.5 mg/kg, iv and 1 mg/kg, po. The settings on record: in vivo, read-out: Vdss. The format is ADME, organism-based.
A short description of data set [3]: Half life in rat at 0.5 mg/kg, iv and 1 mg/kg, po. Format: ADME, organism-based. The settings on record: in vivo.
Data set [4] in a line: Oral bioavailability in rat 1 mg/kg. Format: ADME, organism-based. The settings on record: in vivo.
A short description of data set [5]: Clearance in rat blood at 0.5 mg/kg, iv and 1 mg/kg, po. The format is ADME, organism-based. The settings on record: whole blood.
A short description of data set [6]: Ratio of drug level in rat brain to plasma at 0.5 mg/kg, iv and 1 mg/kg, po. Format: ADME, organism-based.

In data set [1], `Cc1ccc2c(N3CCN(CCc4ccc5c(c4)N(C)C(=O)CO5)CC3)cccc2n1` had a CL of 1.1 mL/min/g. The Vd in data set [2] was determined as 2.7 L/kg.

In turn, `Cc1ccc2c(N3CCN(CCc4ccc5c(c4)NC(=O)CO5)CC3)cccc2n1` returned a CL in data set [1] below 0.5 mL/min/g. Besides, the Vd in data set [2] is 2 L/kg.

Regarding `Cc1ccc2c(N3CCN(CCc4cccc5c4OCC(=O)N5C)CC3)cccc2n1`, the half-life in data set [3] was 1 h. This compound also displayed a bioavailability in data set [4] of 26%. Moreover, the CL in data set [1] amounted to 2.4 mL/min/g. The clearance in data set [5] worked out at 29 mL/min/kg. Further, in data set [2], the Vd is 1.7 L/kg.

As to `Cc1ccc2c(N3CCN(CCCc4cccc5c4OCC(=O)N5C)CC3)cccc2n1`, in data set [6], the Kp was found to be 2.9. Moreover, the half-life in data set [3] is 1.5 h. The same compound returned a CL in data set [1] of 2.1 mL/min/g. In addition, in data set [5], the clearance was 55 mL/min/kg. For the same compound, in data set [2], the Vd turned out to be 5.2 L/kg.

In data set [3], `Cc1ccc2c(N3CCN(CCc4cccc5c4OCC(=O)N5)CC3)cccc2n1` gave a half-life of 5.2 h. This compound had a bioavailability in data set [4] of 63%. In data set [1], this compound gave a CL of 1 mL/min/g. Besides, the clearance in data set [5] was found to be 8 mL/min/kg. For the same compound, the Vd in data set [2] worked out at 3.4 L/kg.

With `Cc1ccc2c(N3CCN(CCc4cccc5c4OCC(=O)N5C)[C@@H](C)C3)cccc2n1`, the Kp in data set [6] turned out to be 1.9. The half-life in data set [3] was 0.8 h. In addition, in data set [4], the bioavailability was determined as 31%. The CL in data set [1] is 3.5 mL/min/g. For the same compound, in data set [5], the clearance turned out to be 44 mL/min/kg. Also, the Vd in data set [2] turned out to be 1.9 L/kg.

`Cc1ccc2c(N3CCN(CCc4cccc5c4OCC(=O)N5C)CC3)cc(F)cc2n1`: the Kp in data set [6] turned out to be 1.1. The half-life in data set [3] was 1.4 h. The compound further had a bioavailability in data set [4] of 41%. In data set [1], this compound yielded a CL of 3.2 mL/min/g. In data set [5], this compound registered a clearance of 21 mL/min/kg. Besides, the Vd in data set [2] is 2.1 L/kg.
